We go through five compounds from patent publication US20180127374A1, “BE[…] AS OPIOID RECEPTORS MODULATORS” (Purdue Pharma L.P., priority 2012, published 2018).

The target in assay [1] is T1, human opioid receptor-like receptor (ORL-1) (Homo sapiens, UniProt P41146).
T1 construct: host or cells: HEK-293
The experiment in a line: ORL-1 receptor radioligand binding assay. The procedure:
Membranes from recombinant HEK-293 cells expressing the human opioid receptor-like receptor (ORL-1) (Perkin Elmer, Shelton, Conn.) were prepared by lysing cells in ice-cold hypotonic buffer (2.5 mM MgCl2, 50 mM HEPES, pH 7.4) (10 ml/10 cm dish) followed by homogenization with a tissue grinder/Teflon pestle. Membranes were collected by centrifugation at 30,000×g for 15 min at 4° C. and pellets resuspended in hypotonic buffer to a final concentration of 1-3 mg/ml. Protein concentrations were determined using the BioRad protein assay reagent with bovine serum albumen as standard. Aliquots of the ORL-1 receptor membranes were stored at −80° C.
The data from screening and dose-displacement experiments were analyzed using Microsoft Excel and the curve fitting functions in GraphPad PRISM™, v. 3.0 or higher, respectively, or an in-house function for one-site competition curve-fitting.

The target of assay [2] is T2, κ opioid receptor (Homo sapiens, UniProt P41145). As to the kind of experiment: κ-opioid receptor [35S]GTPγS functional assay. The format is biochemical. Also noted: expressed in transfected cells. The conditions noted are these: for Emax: relative to the effect elicited by U69,593. As to the method: (§1) Functional [^35S]GTPγS binding assays were conducted as follows. κ opioid receptor membrane solution was prepared by sequentially adding final concentrations of 0.026 μg/μl κ membrane protein (in-house), 10 μg/mL saponin, 3 μM GDP and 0.20 nM [^35S]GTPγS to binding buffer (100 mM NaCl, 10 mM MgCl2, 20 mM HEPES, pH 7.4) on ice. The prepared membrane solution (190 μl/well) was transferred to 96-shallow well polypropylene plates containing 10 μl of 20× concentrated stock solutions of agonist prepared in DMSO. Plates were incubated for 30 min at a temperature of about 25° C. with shaking.
κ GTP EC50 is the concentration of a compound providing 50% of the maximal response for the compound at a κ receptor.
κ GTP Emax (%) is the maximal effect elicited by a compound relative to the effect elicited by U69,593.
(In general: GTPγS is a poorly hydrolysed GTP analogue; its binding reports G protein activation.)

Assay [3] deals with T3, δ opioid receptor (Homo sapiens, UniProt P41143). The experiment in a line: δ-opioid receptor radioligand dose-displacement binding assay.
Procedure: δ-opioid Receptor Binding Assay Procedures were conducted as follows. Radioligand dose-displacement assays used 0.3 nM [^3H]-Naltrindole (Perkin Elmer, Shelton, Conn.; 33.0 Ci/mmole) with 5 μg membrane protein (Perkin Elmer, Shelton, Conn.) in a final volume of 500 μl binding buffer (5 mM MgCl2, 5% DMSO, 50 mM Trizma base, pH 7.4). Non-specific binding was determined in the presence of 25 μM unlabeled naloxone. All reactions were performed in 96-deep well polypropylene plates for 1 hr at a temperature of about 25° C. Binding reactions were terminated by rapid filtration onto 96-well Unifilter GF/C filter plates (Perkin Elmer, Shelton, Conn.) presoaked in 0.5% polyethylenimine (Sigma). Harvesting was performed using a 96-well tissue harvester (Perkin Elmer, Shelton, Conn.) followed by five filtration washes with 500 μl ice-cold binding buffer. Filter plates were subsequently dried at 50° C. for 1-2 hours. Fifty μl/well scintillation cocktail (Perkin Elmer, Shelton, Conn.) was added and plates were counted in a Packard Top-Count for 1 min/well.
Assay [4] concerns the target T4, μ-opioid receptor (Homo sapiens, UniProt P35372). The experiment in a line: μ-opioid receptor radioligand dose-displacement binding assay. The procedure:
Radioligand dose-displacement binding assays for μ-opioid receptors used 0.3 nM [^3H]-diprenorphine (Perkin Elmer, Shelton, Conn.), with […] membrane protein/well in a final volume of […] binding buffer (10 mM MgCl2, 1 mM EDTA, 5% DMSO, 50 mM HEPES, pH 7.4). Reactions were carried out in the absence or presence of increasing concentrations of unlabeled naloxone. All reactions were conducted in 96-deep well polypropylene plates for 2 hr at room temperature. […] The data were analyzed using the one-site competition curve fitting functions in GraphPad PRISM™ v. 3.0 or higher (San Diego, Calif.), or an in-house function for one-site competition curve-fitting.
Target sequence in this assay (P35372 whole entry): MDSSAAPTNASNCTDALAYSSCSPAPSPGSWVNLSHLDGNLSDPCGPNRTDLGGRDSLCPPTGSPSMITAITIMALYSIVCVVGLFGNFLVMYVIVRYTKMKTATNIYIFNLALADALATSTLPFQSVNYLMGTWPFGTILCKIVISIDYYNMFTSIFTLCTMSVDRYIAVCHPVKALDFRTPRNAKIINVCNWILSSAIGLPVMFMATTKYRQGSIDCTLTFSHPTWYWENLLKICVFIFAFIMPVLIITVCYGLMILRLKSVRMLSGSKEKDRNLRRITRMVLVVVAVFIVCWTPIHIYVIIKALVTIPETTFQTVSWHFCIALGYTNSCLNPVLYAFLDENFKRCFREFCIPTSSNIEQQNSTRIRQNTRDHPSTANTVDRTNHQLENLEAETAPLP

The target of assay [5] is T2, κ opioid receptor. As to the kind of experiment: κ-opioid receptor radioligand dose displacement binding assay. Also noted: expressed in transfected cells; host or cells: HEK-293. The procedure:
Membranes from recombinant HEK-293 cells expressing the human κ opioid receptor (κ) (cloned in house) were prepared by lysing cells in ice cold hypotonic buffer (2.5 mM MgCl2, 50 mM HEPES, pH 7.4) (10 mL/10 cm dish) followed by homogenization with a tissue grinder/Teflon pestle. Membranes were collected by centrifugation at 30,000×g for 15 min at 4° C. and pellets were resuspended in hypotonic buffer to a final concentration of 1-3 mg/mL. Protein concentrations were determined using the BioRad protein assay reagent with bovine serum albumen as standard. Aliquots of κ receptor membranes were stored at […]

In assay [6] the target is T4, μ-opioid receptor. As to the kind of experiment: μ-opioid receptor [35S]GTPγS functional assay. Also noted: purchased Perkin Elmer, Shelton, Conn. The conditions noted are these: for Emax: relative to the effect elicited by DAMGO. Format: biochemical. The procedure: [^35S]GTPγS functional assays were conducted using freshly thawed μ-receptor membranes (Perkin Elmer, Shelton, Conn.). Assay reactions were prepared by sequentially adding the following reagents to binding buffer (100 mM NaCl, 10 mM MgCl2, 20 mM HEPES, pH 7.4) on ice (final concentrations indicated): membrane protein (0.026 mg/mL), saponin ([…]), GDP ([…]) and [^35S]GTPγS (0.20 nM; Perkin Elmer, Shelton, Conn.). The prepared membrane solution (190 μl/well) was transferred to 96-shallow well polypropylene plates containing 10 μI of 20× concentrated stock solutions of the agonist [D-Ala^e, N-methyl-Phe^4 Gly-ol^5]-enkephalin (DAMGO) prepared in dimethyl sulfoxide (DMSO). Plates were incubated for 30 min at about 25° C. with shaking. […] Data were analyzed using the sigmoidal dose-response curve fitting functions in GraphPad PRISM v. 3.0, or an in-house function for non-linear, sigmoidal dose-response curve-fitting.
μ GTP EC50 is the concentration of a compound providing 50% of the maximal response for the compound at a μ-opioid receptor.
μ GTP Emax (%) is the maximal effect elicited by a compound relative to the effect elicited by DAMGO, a standard μ agonist. Generally, the μ GTP Emax (%) value measures the efficacy of a compound to treat or prevent pain or other Conditions.
Target sequence in this assay (P35372 whole entry, species assumed): as the sequence (P35372 whole entry) above

For assay [7], the target named is T3, δ opioid receptor. As to the kind of experiment: δ-opioid receptor [35S]GTPγS functional assay. Particulars: for Emax: relative to the effect elicited by met-enkephalin; for EC50: δ membrane protein. The format is biochemical. Also noted: purchased Perkin Elmer, Shelton, Conn. As to the method:
as §1, with “δ” for “κ”, “(Perkin Elmer, Shelton, Conn.),” for “(in-house),”, “[…]” for “10 μl”
δ GTP EC50 is the concentration of a compound providing 50% of the maximal response for the compound at a δ receptor.
δ GTP Emax (%) is the maximal effect elicited by a compound relative to the effect elicited by met-enkephalin. […] In another embodiment, the Compounds of the Invention will have a δ GTP Emax (%) of about 100% or greater.

Setting [8] is: κ membrane protein (in-house), read-out: GTPγS κ EC50.
The mark [9] stands for this setting: [3H]-diprenorphine displacement, read-out: Ki (nM) Opioid Receptor μ.
The mark [10] stands for this setting: [3H]-U69,593 displacement, HEK-293 membranes, read-out: Ki (nM) Opioid Receptor κ.
The mark [11] stands for this setting: μ-receptor membranes, read-out: GTPγS μ EC50.
[12] abbreviates: [3H]-nociceptin displacement, HEK-293 membranes, read-out: Ki (nM) ORL-1.

Where two headings read alike, the source gives them in different places.

T1 sequence (P41146 whole entry): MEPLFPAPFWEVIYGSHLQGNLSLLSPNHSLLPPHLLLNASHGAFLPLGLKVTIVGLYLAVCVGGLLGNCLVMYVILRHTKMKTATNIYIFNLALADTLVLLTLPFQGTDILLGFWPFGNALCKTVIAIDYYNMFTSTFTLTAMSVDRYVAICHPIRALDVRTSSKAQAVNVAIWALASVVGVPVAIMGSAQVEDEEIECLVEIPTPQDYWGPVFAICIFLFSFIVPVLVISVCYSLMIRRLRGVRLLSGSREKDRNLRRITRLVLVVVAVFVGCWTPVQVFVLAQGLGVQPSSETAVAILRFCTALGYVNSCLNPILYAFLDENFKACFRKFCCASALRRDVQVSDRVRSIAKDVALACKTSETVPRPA
T2 sequence (P41145 whole entry): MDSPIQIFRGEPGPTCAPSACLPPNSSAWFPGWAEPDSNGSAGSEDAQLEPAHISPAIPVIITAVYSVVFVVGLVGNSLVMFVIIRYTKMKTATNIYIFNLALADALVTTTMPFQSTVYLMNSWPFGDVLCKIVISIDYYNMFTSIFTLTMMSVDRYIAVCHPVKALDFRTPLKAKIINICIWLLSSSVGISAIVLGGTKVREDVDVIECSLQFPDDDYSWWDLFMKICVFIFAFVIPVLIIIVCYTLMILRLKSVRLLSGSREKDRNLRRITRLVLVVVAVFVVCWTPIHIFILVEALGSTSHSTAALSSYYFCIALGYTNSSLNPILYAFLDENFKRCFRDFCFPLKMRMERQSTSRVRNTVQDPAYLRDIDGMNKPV
T3 sequence (P41143 whole entry): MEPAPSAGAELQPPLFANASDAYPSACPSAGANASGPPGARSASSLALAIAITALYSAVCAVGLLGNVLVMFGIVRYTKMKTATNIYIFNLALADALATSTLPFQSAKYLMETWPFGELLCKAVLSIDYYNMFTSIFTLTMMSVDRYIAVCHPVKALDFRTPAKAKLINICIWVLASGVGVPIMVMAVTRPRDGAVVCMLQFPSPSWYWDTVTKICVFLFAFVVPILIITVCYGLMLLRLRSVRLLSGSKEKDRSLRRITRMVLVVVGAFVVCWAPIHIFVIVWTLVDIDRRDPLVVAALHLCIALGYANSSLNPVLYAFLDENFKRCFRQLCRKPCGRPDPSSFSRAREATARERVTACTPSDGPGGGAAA

As to `COc1ccc2c(c1)[C@@]1(CCC[C@H](O)CO)CCN(CC3CC3)C(C2)[C@@H]1C` [Compound 11, (2S)-5-((6S,11R)-3-(cyclopropylmethyl)-8-methoxy-11-methyl-1,2,3,4,5,6-hexahydro-2,6-methanobenzo[d]azocin-6-yl)pentane-1,2-diol], the Ki in assay [1] was 13100 ± 1060 nM; in assay [3] it was 4980 ± 456 nM; in assay [4], 235 ± 17.3 nM; in assay [5] it was 3.23 ± 0.5 nM. The figures for the EC50 in assay [2] and in assay [6] were 210 nM and over 20000 nM, respectively. This compound displayed an Emax in assay [2] of 81%.

`C[C@H]1[C@H]2Cc3ccc(O)cc3[C@]1(CCOc1cncc(C(=O)O)c1)CCN2CC1CC1` [Compound 16, 5-(2-((2R,6S,11R)-3-(cyclopropylmethyl)-8-hydroxy-11-methyl-1,2,3,4,5,6-hexahydro-2,6-methanobenzo[d]azocin-6-yl)ethoxy)nicotinic acid]: the Emax in assay [7] came to 37.8%; in assay [2], 60.7%; in assay [6], 26%. For the same compound, the EC50 in assay [7] is 2.48 nM; in assay [2] (setting [8]) it was 67.9 nM; in assay [6] (setting [11]), 8.95 nM. Further, the Ki in assay [3] was 62.5 ± 11 nM; in assay [4] (setting [9]), 6.85 ± 1.48 nM; in assay [5] (setting [10]), 12.6 ± 2.11 nM.

Regarding `CC(C)CN1CC[C@@]2(CCCC(N)=O)c3cc(O)ccc3C[C@@H]1[C@@H]2C` [Compound 18, 4-((2R,6R,11R)-8-hydroxy-3-isobutyl-11-methyl-1,2,3,4,5,6-hexahydro-2,6-methanobenzo[d]azocin-6-yl)butanamide], the Emax turned out to be 74.3% in assay [7], 43% in assay [2] and 25.3% in assay [6]. Besides, the EC50 in assay [7] was 81 nM; in assay [2] (setting [8]) it was 7.14 nM; in assay [6] (setting [11]), 9.12 nM. Also, the Ki came to 155 ± 44.7 nM in assay [3], 19.8 ± 0.68 nM in assay [4] (setting [9]) and 0.51 ± 0.05 nM in assay [5] (setting [10]).

As to `COC(=O)[C@H](C)NC(=O)CCC[C@]12CCN(CC3CC3)[C@H](Cc3ccc(O)cc31)[C@@H]2C` [Compound 21, (S)-methyl 2-(4-((2R,6R,11R)-3-(cyclopropylmethyl)-8-hydroxy-11-methyl-1,2,3,4,5,6-hexahydro-2,6-methanobenzo[d]azocin-6-yl)butanamido)propanoate], the inhibition constant Ki was 2430 ± 718 nM in assay [1] (setting [12]), 8.81 ± 0.71 nM in assay [3], 5.05 ± 1.34 nM in assay [4] (setting [9]) and 0.13 ± 0.02 nM in assay [5] (setting [10]). For the same compound, the Emax came out at 67.5% in assay [2] and 36.7% in assay [6]. Also, the figures for the EC50 in assay [2] (setting [8]) and in assay [6] (setting [11]) were 9.72 nM and 5.45 nM, respectively.

`COC(=O)CCC[C@]12CCN(CC3CC3)[C@H](Cc3ccc(O)cc31)[C@@H]2C` [Compound 23, methyl 4-((2R,6R,11R)-3-(cyclopropylmethyl)-8-hydroxy-11-methyl-1,2,3,4,5,6-hexahydro-2,6-methanobenzo[d]azocin-6-yl)butanoate]: the Ki in assay [1] (setting [12]) amounted to 2240 ± 285 nM; in assay [3], 32.6 ± 2.97 nM; in assay [4] (setting [9]), 1.16 ± 0.36 nM; in assay [5] (setting [10]), 0.07 ± 0.01 nM. For the same compound, the Emax in assay [2] was 57%; in assay [6] it was 18%. Also, the EC50 came to 5.19 nM in assay [2] (setting [8]) and 2.33 nM in assay [6] (setting [11]).

As a reminder, the Ki is the dissociation constant of the complex between target and ligand, obtained from inhibition or displacement. A word on the EC50: it is the concentration at which the effect is half-maximal. As usually defined, the Emax is the maximal effect, on the per cent scale that the assay sets.
